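Test compounds were applied to cells in 96-well plates for 48 hours at 5 doses. Here, GI50 denotes the concentration required for 50% inhibition of growth.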 Calls of active or inactive are those of the source. Cut-off read from the data, not from the text of the source: active = GI50 up to about 1.1 µM and inactive = higher.
What was measured:
Assay in all cases: inhibition of tumour cell growth, NCI panel, 48 h
[1] = system: 786-0
[2] = system: A498
[3] = system: A549
[4] = system: ACHN
[5] = system: BT-549
[6] = system: CAKI-1
[7] = system: CCRF-CEM
[8] = system: COLO 205
[9] = system: DU-145
[10] = system: EKVX
[11] = system: HCC 2998
[12] = system: HCT-116
[13] = system: HCT-15
[14] = system: HL-60
[15] = system: HOP-62
[16] = system: HOP-92
[17] = system: HT-29
[18] = system: Hs-578T
[19] = system: IGROV-1
[20] = system: K562
[21] = system: KM12
[22] = system: LOX IMVI
[23] = system: M14
[24] = system: MCF7
[25] = system: MDA-MB-231
[26] = system: MDA-MB-435
[27] = system: MDA-N
[28] = system: MOLT-4
[29] = system: Malme-3M
[30] = system: NCI-H226
[31] = system: NCI-H23
[32] = system: NCI-H460
[33] = system: NCI-H522
[34] = system: NCI/ADR-RES
[35] = system: OVCAR-3
[36] = system: OVCAR-4
[37] = system: OVCAR-5
[38] = system: OVCAR-8
[39] = system: PC-3
[40] = system: RPMI-8226
[41] = system: RXF 393
[42] = system: SF-268
[43] = system: SF-295
[44] = system: SF-539
[45] = system: SK-MEL-28
[46] = system: SK-MEL-2
[47] = system: SK-MEL-5
[48] = system: SK-OV-3
[49] = system: SN12C
[50] = system: SNB-19
[51] = system: SNB-75
[52] = system: SR
[53] = system: SW-620
[54] = system: T47D
[55] = system: TK-10
[56] = system: U-251
[57] = system: UACC-257
[58] = system: UACC-62
[59] = system: UO-31

N=C1N=C(N)c2cc3c(cc21)SCCSCCCSCCS3
GI50 [1]: 14.2 µM (inactive)
GI50 [2]: > 44.7 µM (inactive)
GI50 [3]: 18.7 µM (inactive)
GI50 [4]: 12.9 µM (inactive)
GI50 [5]: 14.1 µM (inactive)
GI50 [6]: 42.4 µM (inactive)
GI50 [7]: 3.95 µM (inactive)
GI50 [8]: 12 µM (inactive)
GI50 [9]: 31.6 µM (inactive)
GI50 [10]: 19.9 µM (inactive)
GI50 [11]: 9.62 µM (inactive)
GI50 [12]: 9.59 µM (inactive)
GI50 [13]: 14.3 µM
GI50 [14]: 3.77 µM (inactive)
GI50 [15]: 13.6 µM (inactive)
GI50 [16]: 23.1 µM (inactive)
GI50 [17]: 11.2 µM (inactive)
GI50 [18]: 10.1 µM (inactive)
GI50 [19]: 17.2 µM (inactive)
GI50 [20]: 4.71 µM (inactive)
GI50 [21]: 11.9 µM (inactive)
GI50 [22]: 4.38 µM (inactive)
GI50 [23]: 16.6 µM (inactive)
GI50 [24]: 27 µM (inactive)
GI50 [25]: 16 µM (inactive)
GI50 [26]: 11.1 µM (inactive)
GI50 [27]: 15 µM (inactive)
GI50 [28]: 10.2 µM (inactive)
GI50 [29]: 20.5 µM (inactive)
GI50 [30]: 20.5 µM (inactive)
GI50 [31]: 11.3 µM (inactive)
GI50 [32]: 13.3 µM (inactive)
GI50 [33]: 2.8 µM (inactive)
GI50 [34]: 58.1 µM (inactive)
GI50 [35]: 11.8 µM (inactive)
GI50 [36]: 19.8 µM (inactive)
GI50 [37]: 18.4 µM (inactive)
GI50 [38]: 18 µM (inactive)
GI50 [39]: 15.1 µM (inactive)
GI50 [40]: > 10 µM (inactive)
GI50 [41]: 15.8 µM (inactive)
GI50 [42]: 12.8 µM (inactive)
GI50 [43]: 13.9 µM (inactive)
GI50 [44]: 20.1 µM (inactive)
GI50 [45]: 14.6 µM (inactive)
GI50 [46]: 16.1 µM (inactive)
GI50 [47]: 16 µM (inactive)
GI50 [48]: 18.5 µM (inactive)
GI50 [49]: 14.6 µM (inactive)
GI50 [50]: 15.5 µM (inactive)
GI50 [51]: 14.8 µM (inactive)
GI50 [52]: 11.1 µM (inactive)
GI50 [53]: 11.6 µM (inactive)
GI50 [54]: 24.8 µM (inactive)
GI50 [55]: 15.1 µM (inactive)
GI50 [56]: 15.1 µM (inactive)
GI50 [57]: 20.2 µM (inactive)
GI50 [58]: 22 µM (inactive)
GI50 [59]: 49.9 µM (inactive)

O=C1C(Cl)=C(N2CCN(c3ncccn3)CC2)C(=O)c2c(O)ccc(O)c21
GI50 [1]: 1.6 µM (inactive)
GI50 [2]: 2.9 µM (inactive)
GI50 [3]: 7.16 µM (inactive)
GI50 [4]: 2.43 µM (inactive)
GI50 [5]: 2.14 µM (inactive)
GI50 [6]: 2.05 µM (inactive)
GI50 [7]: 0.211 µM (active)
GI50 [8]: 1.75 µM (inactive)
GI50 [9]: 4.34 µM (inactive)
GI50 [10]: 11.4 µM (inactive)
GI50 [11]: 10.8 µM (inactive)
GI50 [12]: 1.69 µM (inactive)
GI50 [13]: 1.59 µM
GI50 [14]: 0.0515 µM (active)
GI50 [15]: 2.55 µM (inactive)
GI50 [16]: 2.37 µM (inactive)
GI50 [17]: 2.98 µM (inactive)
GI50 [18]: 2.9 µM (inactive)
GI50 [19]: 1.9 µM (inactive)
GI50 [20]: 1.45 µM (inactive)
GI50 [21]: 4.43 µM (inactive)
GI50 [22]: 1.72 µM (inactive)
GI50 [23]: 1.88 µM (inactive)
GI50 [24]: 1.51 µM (inactive)
GI50 [25]: 2.15 µM (inactive)
GI50 [26]: 1.67 µM (inactive)
GI50 [27]: 1.78 µM (inactive)
GI50 [28]: 0.697 µM (active)
GI50 [29]: 1.94 µM (inactive)
GI50 [30]: 21.8 µM (inactive)
GI50 [31]: 2.27 µM (inactive)
GI50 [32]: 15.3 µM (inactive)
GI50 [33]: 2.2 µM (inactive)
GI50 [34]: 3.01 µM (inactive)
GI50 [35]: 1.72 µM (inactive)
GI50 [36]: 1.98 µM (inactive)
GI50 [37]: 7.91 µM (inactive)
GI50 [38]: 2.18 µM (inactive)
GI50 [39]: 3.1 µM (inactive)
GI50 [40]: 2.49 µM (inactive)
GI50 [41]: 1.78 µM (inactive)
GI50 [42]: 3.15 µM (inactive)
GI50 [43]: 12.4 µM (inactive)
GI50 [44]: 1.97 µM (inactive)
GI50 [45]: 2.23 µM (inactive)
GI50 [46]: 1.03 µM (active)
GI50 [47]: 2.17 µM (inactive)
GI50 [48]: 24 µM (inactive)
GI50 [49]: 1.85 µM (inactive)
GI50 [50]: 6.55 µM (inactive)
GI50 [51]: 9.02 µM (inactive)
GI50 [52]: 0.265 µM (active)
GI50 [53]: 1.36 µM (inactive)
GI50 [54]: 2.64 µM (inactive)
GI50 [55]: 1.89 µM (inactive)
GI50 [56]: 3.63 µM (inactive)
GI50 [57]: 1.84 µM (inactive)
GI50 [58]: 2.59 µM (inactive)
GI50 [59]: 2.07 µM (inactive)

COc1cccc2cc(C(=O)Nc3ccccn3)c(=N)oc12
GI50 [1]: 95.1 µM (inactive)
GI50 [2]: > 100 µM (inactive)
GI50 [3]: > 100 µM (inactive)
GI50 [4]: 60.3 µM (inactive)
GI50 [5]: 78.2 µM (inactive)
GI50 [6]: > 100 µM (inactive)
GI50 [7]: 22.8 µM (inactive)
GI50 [8]: > 100 µM (inactive)
GI50 [9]: 54.8 µM (inactive)
GI50 [10]: > 100 µM (inactive)
GI50 [11]: > 100 µM (inactive)
GI50 [12]: 83.2 µM (inactive)
GI50 [13]: > 100 µM
GI50 [14]: 21.6 µM (inactive)
GI50 [15]: 82.8 µM (inactive)
GI50 [16]: > 100 µM (inactive)
GI50 [17]: > 100 µM (inactive)
GI50 [18]: 55.7 µM (inactive)
GI50 [19]: > 100 µM (inactive)
GI50 [20]: 39.4 µM (inactive)
GI50 [21]: 99.3 µM (inactive)
GI50 [22]: > 100 µM (inactive)
GI50 [23]: 72.8 µM (inactive)
GI50 [24]: 19.1 µM (inactive)
GI50 [25]: 63 µM (inactive)
GI50 [26]: 63.4 µM (inactive)
GI50 [27]: 82.2 µM (inactive)
GI50 [28]: 0.501 µM (active)
GI50 [29]: 50.9 µM (inactive)
GI50 [30]: > 100 µM (inactive)
GI50 [31]: 52.5 µM (inactive)
GI50 [32]: > 100 µM (inactive)
GI50 [33]: 46.5 µM (inactive)
GI50 [34]: > 100 µM (inactive)
GI50 [35]: 23.7 µM (inactive)
GI50 [36]: > 100 µM (inactive)
GI50 [37]: > 100 µM (inactive)
GI50 [38]: > 100 µM (inactive)
GI50 [39]: > 100 µM (inactive)
GI50 [40]: 75.7 µM (inactive)
GI50 [41]: 49 µM (inactive)
GI50 [42]: 64.1 µM (inactive)
GI50 [43]: > 100 µM (inactive)
GI50 [44]: > 100 µM (inactive)
GI50 [45]: > 100 µM (inactive)
GI50 [46]: 33.6 µM (inactive)
GI50 [47]: > 100 µM (inactive)
GI50 [48]: 85.3 µM (inactive)
GI50 [49]: > 100 µM (inactive)
GI50 [50]: > 100 µM (inactive)
GI50 [51]: 59.2 µM (inactive)
GI50 [52]: 2.43 µM (inactive)
GI50 [53]: > 100 µM (inactive)
GI50 [54]: 33 µM (inactive)
GI50 [55]: > 100 µM (inactive)
GI50 [56]: > 100 µM (inactive)
GI50 [57]: > 100 µM (inactive)
GI50 [58]: 64.4 µM (inactive)
GI50 [59]: > 100 µM (inactive)

Reference: ChEMBL document CHEMBL1201862, “PubChem BioAssay data set” (2004)
